Patent US12702648B2 (priority 2023, dated 2026)
Values after ≈ are worked out from the molar mass of the structure shown.

How the values were obtained:
Assay type in all cases: cell-based
[1] = test system: murine macrophage-like RAW 264.7 cells; assay: In vitro cytotoxicity test (MTS), RAW 264.7; conditions: 72 h incubation, AmB concentration
Method: (§1) In vitro cytotoxicity test: The cytotoxicity of TDs and AmB loaded nanoparticles (NPs) were studied using murine macrophage-like RAW 264.7 cells and human kidney 293T cells via MTS assays. Briefly, cells were seeded in 96-well plates at a density of 6×10^3 (RAW 264.7) and 3×10^3 (293T) cells per well and incubated overnight (Dulbecco's modified Eagle's medium (DMEM) medium, 5% CO2, 37° C.). TDs or AmB nanoformulations with different concentrations were added into each well to treat the cells. After 72 h incubation, CellTiter 96 AQueous MTS reagent was added to each well according to the manufacturer's instructions. The cell viability was determined by measuring the absorbance at 490 nm using a microplate reader (BioTek Synergy H1) with the untreated cells as negative controls. Results were obtained as the average cell viability of triplicate experiments calculated by a formula of [(ODtreat−ODblank)/(ODcontrol−ODblank)×100%]. Statistical analysis: Statistical analysis was carried out using GraphPad Prism (GraphPad Software, California, USA). One-way analyses of variance (ANOVA) was used for two-group and multiple-group analyses. […] The half maximal inhibitory concentration (IC50) was calculated by nonlinear regression analysis ([Inhibitor] vs. response—Variable slope (four parameters)). The half-life was determined by nonlinear regression analysis (one-phase association).

C. albicans (ATCC 10231) = assay: In vitro antifungal activity (MIC, dilution method); conditions: 5×10^6 cells/mL, 24 h at 25° C.
Method: In vitro antifungal activity: In order to study the influence of encapsulation of AmB in TDs on the antifungal activity of the drug, the minimal inhibitory concentration (MIC), defined as the lowest concentration inhibiting clearly visible growth of the fungi, was determined by dilution method. The antifungal agents were tested at AmB final concentration range of 0.0125-5 μg/mL. The testing was performed in 96-well plates. Cell suspensions of C. albicans were prepared in Sabouraud's broth and adjusted to a final concentration of 5×10^6 cells/mL (fungal count determined by microscopic counts on a hemocytometer). The 96-well plate was incubated for 24 h at 25° C. and record the lowest concentration of AmB that prevented visible growth of C. albicans.

human kidney 293T cells = assay: In vitro cytotoxicity test (MTS), 293T; conditions: 72 h incubation, AmB concentration
Method: as §1

SMILES: C[C@@H]1[C@H](O)[C@@H](C)/C=C/C=C/C=C/C=C/C=C/C=C/C=C/[C@H](O[C@@H]2O[C@H](C)[C@@H](O)[C@H](N)[C@@H]2O)C[C@@H]2O[C@](O)(C[C@@H](O)C[C@@H](O)[C@H](O)CC[C@@H](O)C[C@@H](O)CC(=O)O[C@H]1C)C[C@H](O)[C@H]2C(=O)O [free AmB, Amphotericin B]
- IC50 (cytotoxicity) to RAW 264.7 [1]: 1.8 µg/mL
- MIC (minimum inhibitory concentration) (C. albicans (ATCC 10231)): 0.05 µg/mL (≈ 0.0541 µM)
- IC50 (cytotoxicity) to 293T (human kidney 293T cells): 4.3 µg/mL
